For data set [1], the system named is HeLa cells. Put plainly: MTT viability assay, anti-cancer activity of Hsp90 inhibitors. It is filed as cell-based. As to conditions: 24 h.
Data set [2] deals with HeLa cells. Put plainly: JC-10 mitochondrial membrane potential assay. The following applies: 20 μM, 24 h; above the normal value.
Procedure: Procedure: Mitochondria membrane potential assay. Experiments were carried out by using JC-10 Mitochondrial Membrane Potential Assay kit (Abcam, ab112134) according to the manufacturer's manual. Briefly, HeLa cells (2×10^4 cells/well) were seeded in a 96-well plate (black wall clear bottom) in 90 μL of DMEM containing 10% FBS and 1% penicillin/streptomycin and allowed to attach overnight. […] Without washing, cells were treated with 50 μL of a JC-10 dye solution (30 μM in buffer A) for 60 min. Fifty μL of buffer B was added and the fluorescence intensities at Ex/Em=490/520 nm and 540/590 nm were recorded on a microplate reader (Infinite M1000Pro).
CPM1-3 was next tested for a potential effect on mitochondrial membrane potential, a key indicator of cell health or injury. HeLa cells untreated or treated with CPM were labeled with JC-10, a dye molecule which emits green fluorescence inside the cytosol but red fluorescence inside the mitochondria. The ratio of green/red fluorescence (F520/F590) provides an indicator of the mitochondrial membrane potential.

Turning to `COC1=C2C[C@@H](C)C[C@H](OC)[C@H](O)[C@@H](C)/C=C(\C)[C@H](OC(N)=O)[C@@H](OC)/C=C\C=C(/C)C(=O)NC(=CC1=O)C2=O` [GA, geldanamycin], in the data set with HeLa cells [1] (0-10 μM), the “maximum reduction in HeLa cell viability” value was about 40%. Also, the “inhibitor concentration at which maximal inhibition was reached” value with HeLa cells [1] came out at 0.3 µM.
Regarding “p-trifluoromethoxy carbonyl cyanide phenyl hydrazone [FCCP]”, in the data set on HeLa cells [2], the “increase in the F520/F590 ratio” value is “up to 7 fold”.

(Values after patent US11814341B2, “Non-peptidic cell-penetrating motifs” (Ohio State Innovation Foundation, priority 2018, dated 2023).)
